This note sets out measurements from paper PMC4657098, “A Review of the Updated Pharmacophore for the Alpha 5 GABA(A) Benzodiazepine Receptor Model” (International Journal of Medicinal Chemistry, 2015).

In assay [1] the target is α2β3γ2 GABAA/BzR (Homo sapiens, UniProt P18507+P47869). As to the kind of experiment: Competition binding to HEK cell membranes, α2β3γ2. Also noted: expressed in transfected cells.
Assay [2] has as its target α5β3γ2 GABAA/BzR (Homo sapiens, UniProt P18507+P31644). The assay is described as follows: Competition binding to HEK cell membranes, α5β3γ2. Also noted: expressed in transfected cells.
The target of assay [3] is α3β3γ2 GABAA/BzR (Homo sapiens, UniProt P18507+P34903). As to the kind of experiment: Competition binding to HEK cell membranes, α3β3γ2. Also noted: expressed in transfected cells.
The target of assay [4] is α1β3γ2 GABAA/BzR (Homo sapiens, UniProt P14867+P18507). As to the kind of experiment: Competition binding to HEK cell membranes, α1β3γ2. On the set-up: expressed in transfected cells.
The target in assay [5] is α6β3γ2 GABAA/BzR (Homo sapiens, UniProt P18507+Q16445). The assay is described as follows: Competition binding to HEK cell membranes, α6β3γ2. Also noted: expressed in transfected cells.
For assay [6], the target named is T1, α4β3γ2 GABAA/BzR (Homo sapiens, UniProt P18507+P48169).
T1 construct: expressed in transfected cells; host or cells: LTK cells (given for XLi-093 only)
The assay is described as follows: biochemical. It is filed as binding.

Each structure is given as a SMILES string. Read-outs that look alike come from different tables or passages of the source.

In general, Ki refers to a dissociation constant, usually derived from enzyme kinetics or from competition with a known ligand.

`CC(C)(C)OC(=O)c1cc2c(cn1)[nH]c1ccc(I)cc12` [CM-A100]: the Ki is 44.9 nM in assay [1] (read-out: Ki α2); 65.3 nM in assay [2] (read-out: Ki α5); 124 nM in assay [3] (read-out: Ki α3); 14.5 nM in assay [4] (read-out: Ki α1); 1000 nM in assay [5] (read-out: Ki α6); 1000 nM in assay [6] (read-out: Ki α4).

Turning to `CCC(OC(=O)c1ncn2c1C1CCCN1C(=O)c1cc(F)ccc1-2)C(F)(F)F` (mixture of isomers) [CM-B47], the Ki in assay [1] (read-out: Ki α2) turned out to be 63 nM; in assay [2] (read-out: Ki α5), 4.4 nM; in assay [3] (read-out: Ki α3) it was 34 nM; in assay [4] (read-out: Ki α1) it was 32 nM; in assay [5] (read-out: Ki α6), 717 nM; in assay [6] (read-out: Ki α4), 2010 nM.

With `CN1Cc2c(C(=O)OC(C)(C)C)ncn2-c2ccc(C#C[Si](C)(C)C)cc2C1=O` [RY-023 C22H27N3O3Si], the Ki in assay [1] (read-out: Ki α2) stood at 143 nM; in assay [2] (read-out: Ki α5), 2.61 nM; in assay [3] (read-out: Ki α3), 255 nM; in assay [4] (read-out: Ki α1) it was 197 nM; in assay [5] (read-out: Ki α6) it was 58.6 nM; in assay [6] (read-out: Ki α4), 7.8 nM.

Regarding `C#Cc1ccc2c(c1)C(c1ccccc1)=NCc1c(C(=O)OCCCOC(=O)c3ncn4c3CN=C(c3ccccc3)c3cc(C#C)ccc3-4)ncn1-2` [compound 63, 1,3-Bis(8-acetylenyl-6-phenyl-4H-benzo[f]imidazo[1,5-a][1,4]diazepine-3-carboxy) propyl diester], the Ki is 7.4 nM in assay [1] (Ki α2); 194 nM in assay [2] (Ki α5); 272 nM in assay [3] (Ki α3); 236 nM in assay [4] (Ki α1); 5000 nM in assay [5] (Ki α6); 5000 nM in assay [6].

On to `CC(C)(C)CC(=O)c1cc2c(cn1)[nH]c1ccccc12` [CM-A77], for which the Ki stood at 51.9 nM in assay [1] (read-out: Ki α2); 42.6 nM in assay [2] (read-out: Ki α5); 105 nM in assay [3] (read-out: Ki α3); 11.5 nM in assay [4] (read-out: Ki α1); 1000 nM in assay [5] (read-out: Ki α6); 1000 nM in assay [6] (read-out: Ki α4).

Regarding `C#Cc1ccc2c(c1)C(=O)N(C)Cc1c(C(=O)OCC)ncn1-2` [RY-080 C17H15N3O3], the Ki in assay [1] (Ki α2) was 21.4 nM; in assay [2] (Ki α5) it was 0.49 nM; in assay [3] (Ki α3) it was 25.8 nM; in assay [4] (Ki α1), 28.4 nM; in assay [5] (Ki α6) it was 28.8 nM; in assay [6] it was 5.3 nM.

On to `COc1ccc2c(c1)C(=O)N1CCC[C@H]1c1c(C(=O)OCc3ccccc3)ncn1-2` [CM-E10], for which the Ki in assay [1] (read-out: Ki α2) is 26 nM; in assay [2] (read-out: Ki α5) it was 0.51 nM; in assay [3] (read-out: Ki α3), 14 nM; in assay [4] (read-out: Ki α1) it was 23 nM; in assay [5] (read-out: Ki α6) it was 96 nM; in assay [6] (read-out: Ki α4), 215 nM.

Consider `C#Cc1ccc2c(c1)C(c1ccccc1F)=NC(C)C(=O)N2C` (centres unmarked) [OMB-19], for which the Ki in assay [1] (read-out: Ki α2) came out at 4.6 nM; in assay [2] (read-out: Ki α5), 3.5 nM; in assay [3] (read-out: Ki α3), 20 nM; in assay [4] (read-out: Ki α1), 22 nM; in assay [5] (read-out: Ki α6), 40 nM; in assay [6] (read-out: Ki α4) it was 3330 nM.

In the case of `CC(C)OC(=O)c1ncn2c1[C@@H]1CCCN1C(=O)c1cc(Br)ccc1-2` [MMB-II-90], the inhibitory constant (Ki) in assay [1] (read-out: Ki α2) was 24 nM; in assay [2] (read-out: Ki α5), 0.25 nM; in assay [3] (read-out: Ki α3), 5.7 nM; in assay [4] (read-out: Ki α1), 20 nM; in assay [5] (read-out: Ki α6), 36 nM; in assay [6] (read-out: Ki α4), 9 nM.

Take `O=C(OC(C(F)(F)F)C(F)(F)F)c1ncn2c1C1CCCN1C(=O)c1ccccc1-2` (centres unmarked) [MMB-III-018]: the Ki in assay [1] (read-out: Ki α2) worked out at 140 nM; in assay [2] (read-out: Ki α5) it was 14 nM; in assay [3] (read-out: Ki α3) it was 78 nM; in assay [4] (read-out: Ki α1) it was 117 nM; in assay [5] (read-out: Ki α6), 976 nM; in assay [6] (read-out: Ki α4), 3500 nM.

For the compound `CCC(OC(=O)c1ncn2c1C1CCCN1C(=O)c1cc(Br)ccc1-2)C(F)(F)F` (mixture of isomers) [CM-B34], the Ki in assay [1] (read-out: Ki α2) was found to be 451 nM; in assay [2] (read-out: Ki α5), 17 nM; in assay [3] (read-out: Ki α3), 223 nM; in assay [4] (read-out: Ki α1), 472 nM; in assay [5] (read-out: Ki α6), 175 nM; in assay [6] (read-out: Ki α4), 114 nM.

As for `CC[C@H](C)OC(=O)c1ncn2c1[C@@H]1CCCN1C(=O)c1cc(I)ccc1-2` [CM-B31i (ss)], the Ki in assay [1] (read-out: Ki α2) amounted to 184 nM; in assay [2] (read-out: Ki α5) it was 4.9 nM; in assay [3] (read-out: Ki α3) it was 78 nM; in assay [4] (read-out: Ki α1), 90 nM; in assay [6] (read-out: Ki α4), 18 nM.

For `CC[C@H](C)OC(=O)c1ncn2c1[C@@H]1CCCN1C(=O)c1cc(F)ccc1-2` [CM-B44 (ss)], the Ki in assay [1] (read-out: Ki α2) came to 43 nM; in assay [2] (read-out: Ki α5), 4.3 nM; in assay [3] (read-out: Ki α3), 12 nM; in assay [4] (read-out: Ki α1), 32 nM; in assay [5] (read-out: Ki α6), 485 nM; in assay [6] (read-out: Ki α4) it was 379 nM.

With `COc1ccc2c(c1)C(=O)N1CCCC1c1c(C(=O)OCC(C)C)ncn1-2` (centres unmarked) [CM-E11], the Ki in assay [1] (read-out: Ki α2) came out at 308 nM; in assay [2] (read-out: Ki α5), 14 nM; in assay [3] (read-out: Ki α3) it was 161 nM; in assay [4] (read-out: Ki α1), 333 nM; in assay [5] (read-out: Ki α6), 750 nM; in assay [6] (read-out: Ki α4), 394 nM.
